Drawing on doi:10.1101/675579v1, “Oncoprotein GT198 is a direct target of taxol” (biorxiv, 2019), this text covers IC50 for one compound.

Assay type in all cases: binding
The target in experiment [1] is T1, GT198 DBD fragment 126-217 (Homo sapiens, UniProt Q9P2W1).
T1 construct: gene PSMC3IP
T1 sequence (Q9P2W1 126-217): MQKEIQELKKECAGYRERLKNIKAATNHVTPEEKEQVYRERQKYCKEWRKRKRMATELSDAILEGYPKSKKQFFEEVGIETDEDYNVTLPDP
Description: competition with Oregon green-taxol on protein-coated plates, fluorescence.

Experiment [2] has as its target T1, GT198 DBD fragment 126-217. Description: competition with biotinylated ssDNA on protein-coated plates, streptavidin-HRP chemiluminescence.
In experiment [3] the target is T2, GT198 (wild type full length, His-tagged) (Homo sapiens, UniProt Q9P2W1).
T2 construct: gene PSMC3IP; full length aa 1-217, N-terminal His tag kept, E. coli BL21(DE3)pLysS, Ni-NTA; homodimer
T2 sequence (Q9P2W1 1-217): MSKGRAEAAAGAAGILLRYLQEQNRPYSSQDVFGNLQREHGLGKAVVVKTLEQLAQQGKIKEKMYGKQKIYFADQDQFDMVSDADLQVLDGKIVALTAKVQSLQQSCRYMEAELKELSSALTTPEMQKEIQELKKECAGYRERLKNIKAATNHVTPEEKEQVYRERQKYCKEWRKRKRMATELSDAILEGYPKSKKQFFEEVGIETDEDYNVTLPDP
Description: competition with Oregon green-taxol on protein-coated plates, fluorescence.

Experiment [4] concerns the target T2, GT198 (wild type full length, His-tagged). Description: competition with biotinylated ssDNA on protein-coated plates, streptavidin-HRP chemiluminescence.

Each structure is given as a SMILES string.

In the case of `CC(=O)O[C@H]1C(=O)[C@@]2(C)[C@H]([C@H](OC(=O)c3ccccc3)[C@]3(O)C[C@H](OC(=O)[C@H](O)[C@@H](NC(=O)c4ccccc4)c4ccccc4)C(C)=C1C3(C)C)[C@]1(OC(C)=O)CO[C@@H]1C[C@@H]2O` [taxol], the IC50 (as a rule, the concentration that gives 50% inhibition) in experiment [1] is 15.2 nM; in experiment [2] it was 7.3 nM; in experiment [3], 8.8 nM; in experiment [4] it was 8.6 nM.
